# From patent US7015325B2, “Tryptase inhibitors” (ALTANA Pharma AG, priority 1999, dated 2006)
# Where a name gives a salt, the structure may show the parent alone.
# Target: human tryptase
# Assay: Inhibition of human tryptase (apparent dissociation constant, chromogenic substrate tos-Gly-Pro-arg-pNA)
# Format: biochemical
# Details: apparent dissociation constant in presence of substrate; heparin 0.1–50 μg/ml; equilibrium conditions; read-out: Kiapp
# Text: The documented pathophysiological effects of mast cell tryptase are caused directly by the enzymatic activity of the protease. Accordingly, they are reduced or blocked by inhibitors which inhibit the enzymatic activity of the tryptase. A suitable measure for the affinity of a reversible inhibitor to the target protease is the equilibrium dissociation constant Ki of the enzyme-inhibitor complex. This Ki value can be determined via the effect of the inhibitor on the tryptase-induced cleavage of a chromogenic peptide-p-nitroanilide substrate or a fluorogenic peptide-aminomethylcoumarin substrate.
# The dissociation constants for the tryptase-inhibitor complexes are determined under equilibrium conditions in accordance with the general proposals of Bieth (Bieth J G, Pathophysiological Interpretation of kinetic constants of protease inhibitors, Bull. Europ. Physiopath. Resp. 16:183–195, 1980) and the methods of Sommerhoff et al. (Sommerhoff C P et al., A Kazal-type inhibitor of human mast cell tryptase: Isolation from the medical leech Hirudo medicinalis, characterization, and sequence analysis, Biol. Chem. Hoppe-Seyler 375: 685–694, 1994).
# Human tryptase is isolated from lung tissue or prepared recombinantly; the specific activity of the protease, determined by titration, is usually greater than 85% of the theoretical value. In the presence of heparin (0.1–50 μg/ml) for stabilizing the protease, constant amounts of the tryptase are incubated with increasing amounts of the inhibitors. After an equilibrium between the reaction partners has formed, the remaining enzyme activity after addition of the peptide-p-nitroanilide substrate tos-Gly-Pro-arg-pNA is determined and the cleavage of the latter is monitored at 405 nm for 3 min. Alternatively, the remaining enzymatic activity can also be determined using fluorogenic substrates. The apparent dissociation constants Kiapp (i.e. in the presence of substrate) are subsequently determined by adapting the enzyme rates to the general equation for reversible inhibitors (Morrison J F, Kinetics of the reversible inhibition of enzyme-catalyzed reactions by tight-binding inhibitors, Biochim. Biophys. Acta 185, 269–286, 1969) using non-linear regression: VI/V0=1−{Et+It+Kiapp−[(Et+It+Kiapp)^2−4EtIt]^1/2}/2Et VI and V0 are the rates in the presence and absence, respectively, of the inhibitor, and Et and It are the tryptase and inhibitor concentrations, respectively.
# The apparent dissociation constants determined for the compounds according to the invention are shown in Table A below, where the numbers of the compounds correspond to the numbers of the compounds in the examples.
row,SMILES,Ki
1,"NC[C@H]1CC[C@H](C(=O)N2CCN(C(=O)OCCOCC#CCOCCOC(=O)N3CCN(C(=O)[C@H]4CC[C@H](CN)CC4)CC3)CC2)CC1 [Compound 1, 1,4-Bis-[4-(trans-4-aminomethylcyclohexylcarbonyl)-1-piperazinylcarbonyl-1-oxyethyl-2-oxy]-2-butyne dihydrochloride]",86 nM
2,"NCc1cccc(CNC(=O)N2CCN(C(=O)OCCOCC#CCOCCOC(=O)N3CCN(C(=O)NCc4cccc(CN)c4)CC3)CC2)c1 [Compound 3, 1,4-Bis-[4-(3-aminomethylbenzylaminocarbonyl)-1-piperazinylcarbonyl-1-oxyethyl-2-oxy]-2-butyne dihydrochloride]",8 nM
3,"NCc1ccc(CNC(=O)N2CCN(C(=O)OCCCCC#CC#CCCCCOC(=O)N3CCN(C(=O)NCc4ccc(CN)cc4)CC3)CC2)cc1 [Compound 5, 1,12-Bis-[4-(4-aminomethylbenzylaminocarbonyl)-1-piperazinylcarbonyl-1-oxy]-5,7-dodecadiyne dihydrochloride]",12 nM
4,"NCc1cccc(CNC(=O)N2CCN(C(=O)OCC#CC#CCOC(=O)N3CCN(C(=O)NCc4cccc(CN)c4)CC3)CC2)c1 [Compound 7, 1,6-Bis-[4-(3-aminomethylbenzylaminocarbonyl)-1-piperazinylcarbonyl-1-oxy]-2,4-hexadiyne dihydrochloride]",8 nM

# Now those with a lower Ki, led by results:
row,Ki,SMILES
1,0.35 nM,"NCc1ccc(CNC(=O)N2CCN(C(=O)OCCOCC#CCOCCOC(=O)N3CCN(C(=O)NCc4ccc(CN)cc4)CC3)CC2)cc1 [Compound 2, 1,4-Bis-[4-(4-aminomethylbenzylaminocarbonyl)-1-piperazinylcarbonyl-1-oxyethyl-2-oxy]-2-butyne dihydrochloride]"
2,0.25 nM,"NCc1ccc(CNC(=O)N2CCN(C(=O)OCC#CC#CCOC(=O)N3CCN(C(=O)NCc4ccc(CN)cc4)CC3)CC2)cc1 [Compound 4, 1,6-Bis-[4-(4-aminomethylbenzylaminocarbonyl)-1-piperazinylcarbonyl-1-oxy]-2,4-hexadiyne dihydrochloride]"
3,1.4 nM,"NCc1cccc(CNC(=O)N2CCN(C(=O)OCCCCC#CC#CCCCCOC(=O)N3CCN(C(=O)NCc4cccc(CN)c4)CC3)CC2)c1 [Compound 6, 1,12-Bis-[4-(3-aminomethylbenzylaminocarbonyl)-1-piperazinylcarbonyl-1-oxy]-5,7-dodecadiyne dihydrochloride]"
